In US8188078B2 (Sanofi-Aventis, priority 2007, dated 2012):
pIC50: −log10 of the molar value.

Columns and labels:
[1] = target: T1, c-MET (Homo sapiens, UniProt P08581); assay: Test A: HTRF Met test in 96-well format; assay type: biochemical
T1 construct: The recombinant DNA His-Tev-MET (956-1390) in pFastBac(Invitrogen); His (N, cleaved yes); Tev (TEV protease site) (N, cleaved yes); made in house; host or cells: SF21 insect cells (baculovirus, pFastBac)
In short: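 Percent inhibition was calculated from the HTRF 665/620 ratio, using Eu-cryptate anti-phosphotyrosine PT66 plus streptavidin-XL added with EDTA and read after 2 h. The reaction ran 10 min at room temperature: 5 nM tag-cleaved MET (956–1390), 10 µM ATP, 1 µg/ml poly-GAT, and compound from 0.17 nM to 10 µM in 3% DMSO.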

[2] = target: RON (Homo sapiens, UniProt Q04912); assay: Test B: HTRF RON test in 96-well format; assay type: biochemical
Description: B) HTRF RON Test in 96-Well Format
The inhibitory potency (IC50) of molecules on the enzymatic activity of kinase phosphorylation RON is determined by the HTRF technique. The activity of the kinase is evaluated by measuring the phosphorylation of the substrate polyGAT by the enzyme, in the presence of ATP.
Final RON 5 nM is incubated in the presence of the molecule to be tested (for a final concentration range from 0.17 nM to 10 μM, final DMSO 3%) in buffer MOPS 10 mM pH 7, DTT 1 mM, Tween 20 0.01%. This pre-incubation is performed in 96 half-well black plates in a volume of 35 μl for 30 minutes at room temperature.
The reaction is initiated by adding 15 μl of a mixture of substrates constituted of biotinylated poly-(GAT) 1 μg/ml final and ATP 10 μM final in the presence of MgCl2 5 mM final for a final volume of 50 μl.
After incubation for 30 min at room temperature, the reaction is stopped with 30 μl of a mixture of Hepes 100 mM final pH 7, potassium fluoride 400 mM final, BSA 0.1% and EDTA 133 mM in the presence of 80 ng per well of antibodies Streptavidin ITS-XL665 Cis-Bio Int. and 18 ng per well of anti-phosphotyrosine PT66 labelled with europium cryptate.
After incubation for 2 hours at room temperature, reading is carried out at 2 wavelengths 620 nm and 665 nm in a Genios TECAN reader for the TRACE/HTRF technique and the percentage inhibition is calculated according to the 665/620 ratios.

[3] = test system: MKN45 cells; assay: Test D: cellular proliferation by 14C-thymidine pulse, MKN45 cells; assay type: cell-based; settings: cell line not stated (HCT116 or MKN45)
In short: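 MKN45 cells (7500/well, RPMI + 10% foetal calf serum) treated with 10 concentrations, 10000 to 0.3 nM in 3-fold steps, duplicate. 14C-thymidine (0.1 μCi/well) added at 72 h; incorporation counted after 24 h pulse, 96 h total treatment.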

[4] = Homo sapiens, MKN-45, cellular proliferation by 14C-thymidine pulse
[5] = cellular proliferation by 14C-thymidine pulse

T1 sequence (P08581 956-1390): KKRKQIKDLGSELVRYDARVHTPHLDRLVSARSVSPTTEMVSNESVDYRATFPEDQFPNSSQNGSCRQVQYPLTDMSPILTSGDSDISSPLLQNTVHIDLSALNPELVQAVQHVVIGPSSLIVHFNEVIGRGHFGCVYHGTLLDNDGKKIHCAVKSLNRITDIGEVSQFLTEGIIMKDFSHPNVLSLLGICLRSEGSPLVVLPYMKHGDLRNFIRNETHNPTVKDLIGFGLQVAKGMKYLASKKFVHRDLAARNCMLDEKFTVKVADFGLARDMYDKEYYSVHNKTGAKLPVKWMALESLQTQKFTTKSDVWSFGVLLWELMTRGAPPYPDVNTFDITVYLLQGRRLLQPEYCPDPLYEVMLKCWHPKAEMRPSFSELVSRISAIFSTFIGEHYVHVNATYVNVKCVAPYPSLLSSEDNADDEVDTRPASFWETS
RON, sequence (Q04912 25-1400): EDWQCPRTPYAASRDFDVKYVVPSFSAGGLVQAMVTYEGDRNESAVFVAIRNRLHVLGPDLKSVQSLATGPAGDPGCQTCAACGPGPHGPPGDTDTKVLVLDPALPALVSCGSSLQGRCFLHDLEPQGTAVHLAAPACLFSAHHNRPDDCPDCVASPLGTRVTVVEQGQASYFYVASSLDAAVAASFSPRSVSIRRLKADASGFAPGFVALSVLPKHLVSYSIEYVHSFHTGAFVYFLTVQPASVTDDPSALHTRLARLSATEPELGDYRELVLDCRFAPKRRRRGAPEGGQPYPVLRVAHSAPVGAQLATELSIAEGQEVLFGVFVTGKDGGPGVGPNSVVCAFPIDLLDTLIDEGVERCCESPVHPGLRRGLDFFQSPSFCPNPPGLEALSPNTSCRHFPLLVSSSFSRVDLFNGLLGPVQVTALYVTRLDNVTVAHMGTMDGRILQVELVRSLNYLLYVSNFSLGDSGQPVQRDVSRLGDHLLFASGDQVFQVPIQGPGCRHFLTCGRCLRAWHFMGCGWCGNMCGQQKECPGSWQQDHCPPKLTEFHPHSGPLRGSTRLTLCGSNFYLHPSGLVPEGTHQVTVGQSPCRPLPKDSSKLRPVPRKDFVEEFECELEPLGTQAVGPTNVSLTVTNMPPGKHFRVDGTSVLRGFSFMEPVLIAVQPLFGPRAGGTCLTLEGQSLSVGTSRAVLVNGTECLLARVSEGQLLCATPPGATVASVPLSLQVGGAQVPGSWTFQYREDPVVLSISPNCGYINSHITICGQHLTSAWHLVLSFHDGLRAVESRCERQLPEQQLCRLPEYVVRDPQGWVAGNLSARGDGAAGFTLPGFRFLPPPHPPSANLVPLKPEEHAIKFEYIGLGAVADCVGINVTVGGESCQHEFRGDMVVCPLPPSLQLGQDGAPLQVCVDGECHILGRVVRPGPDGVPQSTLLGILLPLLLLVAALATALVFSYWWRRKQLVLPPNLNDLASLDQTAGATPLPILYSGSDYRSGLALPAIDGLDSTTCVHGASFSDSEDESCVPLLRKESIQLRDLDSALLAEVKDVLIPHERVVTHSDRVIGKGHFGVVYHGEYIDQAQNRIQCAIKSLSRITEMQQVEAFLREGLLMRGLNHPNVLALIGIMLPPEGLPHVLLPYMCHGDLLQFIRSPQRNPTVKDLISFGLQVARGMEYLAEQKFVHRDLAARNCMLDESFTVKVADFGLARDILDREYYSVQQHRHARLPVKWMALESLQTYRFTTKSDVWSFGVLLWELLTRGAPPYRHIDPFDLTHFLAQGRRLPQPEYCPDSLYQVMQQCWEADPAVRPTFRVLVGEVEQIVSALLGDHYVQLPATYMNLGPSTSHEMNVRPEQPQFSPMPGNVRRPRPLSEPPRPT

SMILES | pIC50 [1] | pIC50 [2] | pIC50 [3, 4] | pIC50 [3, 5]
CCN1CCN(CCNC(=O)Nc2nc3cc(F)c(OC(C)c4c(Cl)ccc(F)c4Cl)cc3s2)CC1 (stereo not drawn) [Example 100, 1-{6-[1-(2,6-dichloro-3-fluorophenyl)ethoxy]-5-fluoro-1,3-benzothiazol-2-yl}-3-[2-(4-ethylpiperazin-1-yl)ethyl]urea] | > 7.00 | > 6.30 | > 6.30 | –
CC(Oc1ccc2nc(NC(=O)NCCCN3CCOCC3)sc2c1)c1c(Cl)ccc(F)c1Cl (stereo not drawn) [Example 42, 1-{6-[1-(2,6-dichloro-3-fluorophenyl)ethoxy]-1,3-benzothiazol-2-yl}-3-(3-morpholin-4-ylpropyl)urea] | > 7.00 | 5.00 to 6.30 | 5.00 to 6.30 | –
CC(Oc1ccc2nc(NC(=O)NCc3ccccn3)sc2c1)c1c(Cl)ccc(F)c1Cl (stereo not drawn) [Example 58, 1-{6-[1-(2,6-dichloro-3-fluorophenyl)ethoxy]-1,3-benzothiazol-2-yl}-3-(pyridin-2-ylmethyl)urea] | > 7.00 | 5.00 to 6.30 | < 5.00 | –
O=C(NCCN1CCOCC1)Nc1nc2cc(F)c(OCc3c(Cl)cccc3Cl)cc2s1 [Example 21, 1-{6-[(2,6-dichlorobenzyl)oxy]-5-fluoro-1,3-benzothiazol-2-yl}-3-(2-morpholin-4-ylethyl)urea] | > 7.00 | 5.00 to 6.30 | 5.00 to 6.30 | –
CC(Oc1cc2sc(NC(=O)NCCN3CCCC3)nc2cc1F)c1c(F)ccc(Cl)c1Cl (single isomer, unassigned) [Example 119, 1-{6-[(1R*)-1-(2,3-dichloro-6-fluorophenyl)ethoxy]-5-fluoro-1,3-benzothiazol-2-yl}-3-[2-(pyrrolidin-1-yl)ethyl]urea] | > 7.00 | 5.00 to 6.30 | > 6.30 | –
CC(Oc1ccc2nc(NC(=O)NCCCN(C)C)sc2c1)c1c(Cl)ccc(F)c1Cl (stereo not drawn) [Example 43, 1-{6-[1-(2,6-dichloro-3-fluorophenyl)ethoxy]-1,3-benzothiazol-2-yl}-3-[3-(dimethylamino)propyl]urea] | > 7.00 | > 6.30 | < 5.00 | –
CC(Oc1ccc2nc(NC(=O)NCCN3CCOCC3)[nH]c2c1)c1c(Cl)cccc1Cl (stereo not drawn) [Example 2, 1-{6-[1-(2,6-dichlorophenyl)ethoxy]-1H-benzimidazol-2-yl}-3-(2-morpholin-4-ylethyl)urea] | > 7.00 | 5.00 to 6.30 | 5.00 to 6.30 | –
CC(Oc1ccc2nc(NC(=O)NCCN3CCCC3)sc2c1)c1c(Cl)ccc(F)c1Cl (stereo not drawn) [Example 51, 1-{6-[1-(2,6-dichloro-3-fluorophenyl)ethoxy]-1,3-benzothiazol-2-yl}-3-(2-pyrrolidin-1-ylethyl)urea] | > 7.00 | 5.00 to 6.30 | 5.00 to 6.30 | –
CC(Oc1cc2sc(NC(=O)NCCN3CCCC3)nc2cc1F)c1c(Cl)ccc(Cl)c1Cl (stereo not drawn) [Example 126, 1-{5-fluoro-6-[1-(2,3,6-trichlorophenyl)ethoxy]-1,3-benzothiazol-2-yl}-3-[2-(pyrrolidin-1-yl)ethyl]urea] | > 7.00 | 5.00 to 6.30 | 5.00 to 6.30 | –
CC(Oc1ccc2nc(NC(=O)NCCN3CCCC3)sc2c1)c1c(Cl)ccc(Cl)c1Cl (stereo not drawn) [Example 125, 1-[2-(pyrrolidin-1-yl)ethyl]-3-{6-[1-(2,3,6-trichlorophenyl)ethoxy]-1,3-benzothiazol-2-yl}urea] | > 7.00 | 5.00 to 6.30 | 5.00 to 6.30 | –
COCCCNC(=O)Nc1nc2cc(F)c(OC(C)c3c(Cl)ccc(F)c3Cl)cc2s1 (stereo not drawn) [Example 104, 1-{6-[1-(2,6-dichloro-3-fluorophenyl)ethoxy]-5-fluoro-1,3-benzothiazol-2-yl}-3-(3-methoxypropyl)urea] | > 7.00 | > 6.30 | 5.00 to 6.30 | –
CC(Oc1cc2sc(NC(=O)NCCN3CCN(C)CC3)nc2cc1F)c1c(F)ccc(Cl)c1Cl (single isomer, unassigned) [Example 117, 1-{6-[(1S*)-1-(2,3-dichloro-6-fluorophenyl)ethoxy]-5-fluoro-1,3-benzothiazol-2-yl}-3-[2-(4-methylpiperazin-1-yl)ethyl]urea] | > 7.00 | 5.00 to 6.30 | – | 5.00 to 6.30
CC(Oc1ccc2nc(NC(=O)NCc3cccnc3)sc2c1)c1c(Cl)ccc(F)c1Cl (stereo not drawn) [Example 59, 1-{6-[1-(2,6-dichloro-3-fluorophenyl)ethoxy]-1,3-benzothiazol-2-yl}-3-(pyridin-3-ylmethyl)urea] | > 7.00 | 5.00 to 6.30 | 5.00 to 6.30 | –

The remaining lines, values ahead:

pIC50 [1] | pIC50 [2] | pIC50 [3, 4] | pIC50 [3, 5] | SMILES
> 7.00 | > 6.30 | > 6.30 | – | CC(Oc1ccc2nc(NC(=O)NCCN3CCN(C)CC3)sc2c1)c1c(Cl)ccc(F)c1Cl (stereo not drawn) [Example 55, 1-{6-[1-(2,6-dichloro-3-fluorophenyl)ethoxy]-1,3-benzothiazol-2-yl}-3-[2-(4-methylpiperazin-1-yl)ethyl]urea]
> 7.00 | > 6.30 | – | > 6.30 | CC(Oc1ccc2nc(NC(=O)NCCN3CCOCC3)sc2c1)c1c(Cl)ccc(F)c1Cl (single isomer, unassigned) [Example 25, 1-{6-[(1R*)-(2,6-dichloro-3-fluorophenyl)ethoxy]-1,3-benzothiazol-2-yl}-3-(2-morpholin-4-ylethyl)urea]
> 7.00 | 5.00 to 6.30 | 5.00 to 6.30 | – | Cc1ccc(F)c(C(C)Oc2ccc3nc(NC(=O)NCCN4CCOCC4)sc3c2)c1F (stereo not drawn) [Example 123, 1-{6-[1-(2,6-difluoro-3-methylphenyl)ethoxy]-1,3-benzothiazol-2-yl}-3-[2-(morpholin-4-yl)ethyl]urea]
> 7.00 | 5.00 to 6.30 | 5.00 to 6.30 | – | CC(Oc1ccc2nc(NC(=O)C3CC3)sc2c1)c1c(Cl)ccc(F)c1Cl (stereo not drawn) [Example 66, N-{6-[1-(2,6-dichloro-3-fluorophenyl)ethoxy]-1,3-benzothiazol-2-yl}cyclopropanecarboxamide]
> 7.00 | 5.00 to 6.30 | 5.00 to 6.30 | – | CC(Oc1cc2sc(NC(=O)NCCCN)nc2cc1F)c1c(Cl)ccc(F)c1Cl (stereo not drawn) [Example 128, 1-(3-aminopropyl)-3-{6-[1-(2,6-dichloro-3-fluorophenyl)ethoxy]-5-fluoro-1,3-benzothiazol-2-yl}urea]
> 7.00 | 5.00 to 6.30 | < 5.00 | – | Cc1ccc(F)c(C(C)Oc2ccc3nc(NC(=O)NCCN4CCOCC4)sc3c2)c1Cl (stereo not drawn) [Example 28, 1-{6-[1-(2-chloro-6-fluoro-3-methylphenyl)ethoxy]-1,3-benzothiazol-2-yl}-3-(2-morpholin-4-ylethyl)urea]
> 7.00 | 5.00 to 6.30 | < 5.00 | – | O=C(NCCN1CCOCC1)Nc1nc2ccc(OC(c3c(Cl)cccc3Cl)C(F)(F)F)cc2s1 (stereo not drawn) [Example 64, 1-{6-[1-(2,6-dichlorophenyl)-2,2,2-trifluoroethoxy]-1,3-benzothiazol-2-yl}-3-(2-morpholin-4-ylethyl)urea]
> 7.00 | > 6.30 | > 6.30 | – | CC(Oc1ccc2nc(NC(=O)NCCN3CCOCC3)sc2c1)c1c(Cl)ccc(F)c1Cl (stereo not drawn) [Example 24, 1-{6-[1-(2,6-dichloro-3-fluorophenyl)ethoxy]-1,3-benzothiazol-2-yl}-3-(2-morpholin-4-ylethyl)urea]
> 7.00 | 5.00 to 6.30 | 5.00 to 6.30 | – | CC(Oc1cc2sc(NC(=O)CN3CCNCC3)nc2cc1F)c1c(Cl)ccc(F)c1Cl (stereo not drawn) [Example 69, N-{6-[1-(2,6-dichloro-3-fluorophenyl)ethoxy]-5-fluoro-1,3-benzothiazol-2-yl}-2-(piperazin-1-yl)acetamide]
> 7.00 | > 6.30 | 5.00 to 6.30 | – | CC(Oc1cc2sc(NC(=O)NCCCN3CCCC3=O)nc2cc1F)c1c(F)ccc(Cl)c1Cl (stereo not drawn) [Example 114, 1-{6-[1-(2,3-dichloro-6-fluorophenyl)ethoxy]-5-fluoro-1,3-benzothiazol-2-yl}-3-[3-(2-oxopyrrolidin-1-yl)propyl]urea]
> 7.00 | 5.00 to 6.30 | 5.00 to 6.30 | – | CC(Oc1ccc2nc(NC(=O)NCCN3CCCCC3)sc2c1)c1c(Cl)ccc(F)c1Cl (stereo not drawn) [Example 50, 1-{6-[1-(2,6-dichloro-3-fluorophenyl)ethoxy]-1,3-benzothiazol-2-yl}-3-(2-piperidin-1-ylethyl)urea]
